For the series the following is noted: instrument: DT, single field, calibrated with Agilent tune mix (Agilent).

For the compound `N[C@@H](Cc1cc(I)c(Oc2ccc(O)c(I)c2)c(I)c1)C(=O)O` [Liothyronine], the “collision cross section (N2)” value is reported as 209.7 Å² ([M+H]+) and 185.23 Å² ([M+Na-2H]-). Turning to `N#CC(O)c1ccccc1` (stereo not given) [Mandelonitrile], the “collision cross section (N2)” value ([M+H]+) stood at 128.9 Å². As for `COc1ccc2[nH]cc(CCNC(C)=O)c2c1` [Melatonin], the “collision cross section (N2)” value by setting is: ([M+H]+) 154.3 Å²; ([M-H]-) 153.53 Å².

On to `CC1=CC(=O)c2ccccc2C1=O` [Menadione (Vitamin K3)], for which the “collision cross section (N2)” value ([M+H]+) came to 134.6 Å². Turning to `CC1=CC(=O)c2ccccc2C1=O` [Menadione], the “collision cross section (N2)” value ([M-H]-) is 129.79 Å². Turning to `CCCCCCCCCCCCCC(=O)SCCNC(=O)CCNC(=O)C(O)C(C)(C)COP(=O)(O)OP(=O)(O)OC[C@H]1O[C@@H](n2cnc3c(N)ncnc32)[C@H](O)[C@@H]1OP(=O)(O)O` (stereo not given in full) [Myristoyl-coenzyme A], the “collision cross section (N2)” value is, setting by setting: ([M+H]+) 289.9 Å²; ([M-H]-) 290.65 Å². For `Cn1cc(C(N)=O)ccc1=O` [N1-Methyl-2-pyridone-5-carboxamide], under “[M+H]+”, the “collision cross section (N2)” value came out at 132.1 Å². With `CN(C)c1nc(=O)c2ncn([C@@H]3O[C@H](CO)[C@@H](O)[C@H]3O)c2[nH]1` [N2,N2-Dimethylguanosine], the “collision cross section (N2)” value amounted to 170.6 Å² ([M+H]+) and 169.16 Å² ([M-H]-). Taken in the same sequence, the figures for `CC(=O)Nc1ccn([C@@H]2O[C@H](CO)[C@@H](O)[C@H]2O)c(=O)n1` [N4-Acetylcytidine] were 162.7 Å² and 161.4 Å². On the same counts, the results for `CC(=O)NCCCC[C@H](N)C(=O)O` [N6-Acetyl-L-lysine] are 142.3 Å² and 139.75 Å². Turning to `CC(=O)N[C@H]1C(O)O[C@H](COP(=O)(O)O)[C@@H](O)[C@@H]1O` (stereo partly drawn) [N-Acetyl-D-Glucosamine 6-Phosphate], the “collision cross section (N2)” value reads like this: ([M+Na]+) 164 Å²; ([M-H]-) 152.83 Å². As to `CC(=O)N[C@H]1[C@H]([C@H](O)[C@H](O)CO)OC(O)(C(=O)O)C[C@@H]1O` (stereo not given in full) [N-Acetylneuraminic acid], the “collision cross section (N2)” value ([M+Na]+) came to 168.6 Å². Consider `CC(=O)Nc1ccccc1` [N-Phenylacetamide], for which the “collision cross section (N2)” value ([M-H]-) was found to be 124.17 Å².

In the case of `NC(=O)N[C@@H](CC(=O)O)C(=O)O` [N-carbamoyl-L-aspartate], the “collision cross section (N2)” value ([M+Na]+) turned out to be 139.1 Å².

As to `O=C([O-])c1cccnc1` [Nicotinate], the “collision cross section (N2)” value ([M+H]+) is given as 124 Å². Take `CC[C@H](C)[C@@H]1NC(=O)[C@H](Cc2ccc(O)cc2)NC(=O)[C@@H](N)CSSC[C@@H](C(=O)N2CCC[C@H]2C(=O)N[C@@H](CC(C)C)C(=O)NCC(N)=O)NC(=O)[C@H](CC(N)=O)NC(=O)[C@H](CCC(N)=O)NC1=O` [Oxytocin]: the “collision cross section (N2)” value by setting is: ([M+H]+) 303.8 Å²; ([M-H]-) 294.98 Å².

On to `CCCCCCCCCCCCCCCC=O` [Palmitaldehyde], for which the “collision cross section (N2)” value ([M-H]-) is 163.36 Å².

Turning to `O=C(O)CNC(=O)Cc1ccccc1` [Phenylacetylglycine], for the setting “[M-H]-”, the “collision cross section (N2)” value is reported as 147.23 Å². Turning to `CC1=C(C/C=C(\C)CCC[C@H](C)CCC[C@H](C)CCCC(C)C)C(=O)c2ccccc2C1=O` [Phylloquinone], the “collision cross section (N2)” value ([M+H]+) was 217.3 Å² and the “collision cross section (N2)” value ([M-H]-) is given as 211.81 Å². On to `CC(C)CCCC(C)CCCC(C)CCCC(C)CC(=O)O` (stereo not given) [Phytanic acid], for which the “collision cross section (N2)” value ([M-H]-) came to 183.17 Å². `CCCCCCCCCCCCCC[C@@H](O)[C@@H](O)[C@@H](N)CO` [Phytosphingosine]: the “collision cross section (N2)” value amounted to 196.2 Å² ([M+H]+) and 180.68 Å² ([M-H]-). For `CC(C)CCCC(C)CCCC(C)CCCC(C)C(=O)O` (stereo not given) [Pristanic acid], the “collision cross section (N2)” value is, setting by setting: ([M+Na]+) 206.3 Å²; ([M-H]-) 178.79 Å². For the compound `CCCCC[C@H](O)/C=C/[C@H]1[C@H](O)CC(=O)[C@@H]1CCCCCCC(=O)O` [Prostaglandin E1], the “collision cross section (N2)” value reads like this: ([M+Na]+) 198.3 Å²; ([M-H2O-H]-) 181.94 Å². Regarding `C=Cc1c(C)c2cc3[nH]c(cc4nc(cc5nc(cc1[nH]2)C(C)=C5CCC(=O)O)C(CCC(=O)O)=C4C)c(C)c3C=C` [Protoporphyrin IX], the “collision cross section (N2)” value is, setting by setting: ([M+H]+) 241.4 Å²; ([M-H]-) 245.23 Å². For the compound `N#C[C@H](O[C@@H]1O[C@H](CO)[C@@H](O)[C@H](O)[C@H]1O)c1ccccc1` [Prunasin], the “collision cross section (N2)” value ([M+Na]+) is recorded as 173.7 Å². On to `Cc1ncc(COP(=O)(O)O)c(C=O)c1O` [Pyridoxal 5'-phosphate], for which the “collision cross section (N2)” value runs as follows: ([M+H]+) 151.4 Å²; ([M-H]-) 146.34 Å².

The values above are taken from the C3SDB collision cross section collection.
